Our source for the IC50 values is patent US20060234956A1, “Dicarboxylic acid ester derivatives of ginsenoside, pharmaceutical preparations containing the same, and preparation thereof” (Amersen Bioscience International, Inc., priority 2005, published 2006).

Where two headings read alike, the source gives them in different places.

Assay type in all cases: cell-based
Assay [1] concerns OVCAR-3 (Adenocarcinoma, ovary, human). Put plainly: Anti-cancer activity assay, alamarBlue cell growth, OVCAR-3.
Excerpt: Four human tumor cell lines, OVCAR-3 (Adenocarcinoma, ovary, human), A549 (Carcinoma, lung, human), HT-29 (Adenocarcinoma, colon, moderately well-differentiated grade II, human) and MCF-7 (Breast adenocarcinoma, pleural effusion, human) were chosen in the experiments., which were obtained from American Type Culture Collection (ATCC) under codes of ATCC HTB-161, ATCC CCL-185, ATC HTB-38 and ATCC HTB-22, respectively. The culture medium used for OVCAR-3 was RPMI 1640 medium with 20% fetal bovine serum, which was supplemented with 0.01 mg bovine insulin per ml and 1% Antibiotice-Antimycotic. The culture medium used for A549 was F-12K nutrient mixture (Kaighn's Modification), 90%; and fetal bovine serum 10%. The culture medium used for HT-29 was McCoy's 5A medium, 90%; and fetal bovine serum, 10%. The culture medium used for MCF-7 was Minimum Essential Medium, 90%; and fetal bovine serum, 10%.
CK was dissolved in a mixed solvent of ethanol and Cremophor® RH40 (ethanol:Cremophor® RH40=1:1), and then diluted with sterile distilled water to obtain test solutions having CK concentrations of 10000, 1000, 100, 10, 1 μg/ml in 5% ethanol and 5% Cremophor® RH40.
(§1) Aliquots of 100 μl of cell suspension (about 1.0˜3.0×10^3/well) were placed in 96-well microtiter plates in an atmosphere of 5% CO2 at 37° C. After 24 hours, 100 μl of growth medium and 2 μl of test solution or vehicle (5% ethanol and 5% Cremophor® RH40) were added per respectively per well in duplicate for an additional 72-hour incubation. Thus, the final concentration of vehicle was 0.05%. The test compound, CK, was evaluated at concentrations of 100, 10, 1, 0.1, 0.01 μg/ml. At the end of the incubation, 20 μl of alamarBlue 90% reagent was added to each well for another 6-hour incubation before detection of cell viability by fluorescent intensity. Fluorescent intensity was measured using a SPECTRAfluor Plus plate reader with excitation at 530 nm and emission at 590 nm.
The tumor cell lines used were the same as in Experiment 1.
CK succinate and CK glutarate derivatives were directly dissolved in the phosphate buffered saline (PBS) having a pH of 7.4, and then diluted with sterile distilled water to obtain test solutions having concentrations of the CK derivative of 2000, 200, 20, 2, 0.2 μg/ml in 40% PBS
as §1, with “(about 5.0×10^3/well)” for “(about 1.0˜3.0×10^3/well)”, “hours, 90” for “hours, 100”, “and 10” for “and 2”, “vehicle (40% PBS, pH 7.4)” for “vehicle (5% ethanol and 5% Cremophor® RH40)”, “compound, CK derivative,” for “compound, CK,”
The measured results were calculated according to the following formulas: • PG (Percent Growth): PG(%)=100%×(Mean Ftest-Mean Ftime0)/(Mean Fctrl-Mean Ftime0) • If (Mean Ftest-Mean Ftime0)<0, then PG(%)=100%×(Mean Ftest-Mean Ftime0)/(Mean Ftime0-Mean Fblank) wherein • Mean Ftime0=The average of two measured fluorescent intensities of reduced alamarBlue at the time just before exposure of cells to the test compound; • Mean Ftest=The average of two measured fluorescent intensities of alamarBlue after 72-hour exposure of cells to the test compound; • Mean Fctrl=The average of two measured fluorescent intensities of alamarBlue after 72-hour incubation without the test compound; • Mean Fblank=The average of two measured fluorescent intensities of alamarBlue in medium without cells after 72-hour incubation. […]

In assay [2] the test system is A549 (Carcinoma, lung, human). Put plainly: Anti-cancer activity assay, alamarBlue cell growth, A549. The note with it: 72-hour incubation, CK in 5% ethanol/5% Cremophor RH40, derivatives in PBS pH 7.4, read-out: IC50 (μM) of CK, CK succinate and CK glutarate derivatives, A549. The source says: (§2) Four human tumor cell lines, OVCAR-3 (Adenocarcinoma, ovary, human), A549 (Carcinoma, lung, human), HT-29 (Adenocarcinoma, colon, moderately well-differentiated grade II, human) and MCF-7 (Breast adenocarcinoma, pleural effusion, human) were chosen in the experiments., which were obtained from American Type Culture Collection (ATCC) under codes of ATCC HTB-161, ATCC CCL-185, ATC HTB-38 and ATCC HTB-22, respectively. The culture medium used for OVCAR-3 was RPMI 1640 medium with 20% fetal bovine serum, which was supplemented with 0.01 mg bovine insulin per ml and 1% Antibiotice-Antimycotic. […]
(§3) Aliquots of 100 μl of cell suspension (about 1.0˜3.0×10^3/well) were placed in 96-well microtiter plates in an atmosphere of 5% CO2 at 37° C. […] The test compound, CK, was evaluated at concentrations of 100, 10, 1, 0.1, 0.01 μg/ml. […] Fluorescent intensity was measured using a SPECTRAfluor Plus plate reader with excitation at 530 nm and emission at 590 nm. […]
(§4) Aliquots of 100 μl of cell suspension (about 5.0×10^3/well) were placed in 96-well microtiter plates in an atmosphere of 5% CO2 at 37° C. […] The test compound, CK derivative, was evaluated at concentrations of 100, 10, 1, 0.1, 0.01 μg/ml. […] Fluorescent intensity was measured using a SPECTRAfluor Plus plate reader with excitation at 530 nm and emission at 590 nm. […]

For assay [3], the system named is MCF-7 (Breast adenocarcinoma, pleural effusion, human). Put plainly: Anti-cancer activity assay, alamarBlue cell growth, MCF-7. The note with it: 72-hour incubation, CK in 5% ethanol/5% Cremophor RH40, derivatives in PBS pH 7.4, read-out: IC50 (μM) of CK, CK succinate and CK glutarate derivatives, MCF-7.
Excerpt: as §2, §3, §4
On the technique in general: Resazurin is reduced to fluorescent resorufin, in cell work by metabolically active cells.

For assay [4], the system named is HT-29 (Adenocarcinoma, colon, moderately well-differentiated grade II, human). Put plainly: Anti-cancer activity assay, alamarBlue cell growth, HT-29. The note with it: 72-hour incubation, CK in 5% ethanol/5% Cremophor RH40, derivatives in PBS pH 7.4, read-out: IC50 (μM) of CK, CK succinate and CK glutarate derivatives, HT-29.
Excerpt: as §2, §3, §4

The mark [5] stands for this setting: OVCAR-3 tumor cell, Table 4, read-out: IC50 (μM) of ginsenosides and it's succinate derivatives on OVCAR-3 tumor cell.
Setting [6] is: OVCAR-3, 72-hour incubation, alamarBlue, CK in 5% ethanol/5% Cremophor RH40, derivatives in PBS pH 7.4, read-out: IC50 (μM) of CK, CK succinate and CK glutarate derivatives, OVCAR-3.

For `CC(C)=CCCC(C)(O)[C@H]1CC[C@]2(C)[C@@H]1[C@H](O)C[C@@H]1[C@@]3(C)CC[C@H](O)C(C)(C)[C@@H]3CC[C@]12C` (stereo in doubt) [GS40, protopanaxadiol, reference compound], the IC50 in assay [1] (setting [5]) turned out to be 28.2 µM. In the case of `CC(C)=CCC[C@](C)(O[C@@H]1O[C@H](CO)[C@@H](O)[C@H](O)[C@H]1O)[C@H]1CC[C@]2(C)[C@@H]1[C@H](O)C[C@@H]1[C@@]3(C)CC[C@H](O)C(C)(C)[C@@H]3[C@@H](O)C[C@]12C` [GS30, F1, reference compound], the 50% inhibitory concentration (IC50) in assay [1] (setting [5]) turned out to be 50.1 µM.

Consider `CC(C)=CCCC(C)(OC1OC(CO)C(O)C(OC(=O)CCC(=O)O)C1O)C1CCC2(C)C1C(O)CC1C3(C)CCC(O)C(C)(C)C3C(O)CC12C` (stereo not shown) [GS32, F1-3′-monosuccinate], for which the IC50 in assay [1] (setting [5]) came to 14.9 µM. Still for that read-out and setting: the result for `CC(C)=CCCC(C)(O)C1CCC2(C)C1C(OC(=O)CCC(=O)O)CC1C3(C)CCC(O)C(C)(C)C3CCC12C` (stereo not shown) [GS41, PPD-12-monosuccinate] reads 42.8 µM; that for `CC(C)=CCCC(C)(O)C1CCC2(C)C1C(OC(=O)CCC(=O)O)CC1C3(C)CCC(OC(=O)CCC(=O)O)C(C)(C)C3CCC12C` (stereo not shown) [GS42, PPD-3,12-disuccinate], 30.3 µM; that for `CC(C)=CCC[C@](C)(O)[C@H]1CC[C@]2(C)[C@@H]1[C@H](O)C[C@@H]1[C@@]3(C)CC[C@H](O)C(C)(C)[C@@H]3[C@@H](O)C[C@]12C` [GS50, protopanaxatriol, reference compound], 31.5 µM.

Take `CC(C)=CCCC(C)(O)C1CCC2(C)C1C(OC(=O)CCC(=O)O)CC1C3(C)CCC(O)C(C)(C)C3C(O)CC12C` (stereo not shown) [GS51, PPT-12-monosuccinate]: the IC50 in assay [1] (setting [5]) is 31.2 µM. As to `CC(C)=CCCC(C)(O)C1CCC2(C)C1C(OC(=O)CCC(=O)O)CC1C3(C)CCC(OC(=O)CCC(=O)O)C(C)(C)C3C(O)CC12C` (stereo not shown) [GS52, PPT-3,12-disuccinate], in assay [1] (setting [5]), the IC50 was determined as 26.6 µM. The same measure, in the same setting: the result for `CC(C)=CCCC(C)(O)C1CCC2(C)C1C(OC(=O)CCC(=O)O)CC1C3(C)CCC(OC(=O)CCC(=O)O)C(C)(C)C3C(OC(=O)CCC(=O)O)CC12C` (stereo not shown) [GS53, PPT-3,6,12-trisuccinate] reads 47.6 µM. Take `CC(C)=CCCC(C)(OC1OC(COC(=O)CCC(=O)O)C(O)C(O)C1O)C1CCC2(C)C1C(O)CC1C3(C)CCC(O)C(C)(C)C3CCC12C` (stereo not shown) [GS-6, CK-6′-monosuccinate]: the IC50 in assay [1] (setting [6]) was 22.1 µM.

On to `CC(C)=CCC[C@](C)(O[C@@H]1O[C@H](CO)[C@@H](O)[C@H](OC(=O)CCC(=O)O)[C@H]1O)[C@H]1CC[C@]2(C)[C@@H]1[C@H](O)C[C@@H]1[C@@]3(C)CC[C@H](O)C(C)(C)[C@@H]3CC[C@]12C` [GS-8, CK-3′-monosuccinate], for which the IC50 in assay [2] was found to be 31.8 µM; in assay [3], 53.9 µM; in assay [4], 71.9 µM; in assay [1] (setting [6]), 19.3 µM. In the case of `CC(C)=CCCC(C)(OC1OC(COC(=O)CCC(=O)O)C(O)C(OC(=O)CCC(=O)O)C1O)C1CCC2(C)C1C(O)CC1C3(C)CCC(O)C(C)(C)C3CCC12C` (stereo not shown) [GS-9, CK-3′,6,-disuccinate], the IC50 in assay [1] (setting [6]) is 89.9 µM. Take `CC(C)=CCCC(C)(OC1OC(COC(=O)CCC(=O)O)C(OC(=O)CCC(=O)O)C(OC(=O)CCC(=O)O)C1O)C1CCC2(C)C1C(O)CC1C3(C)CCC(O)C(C)(C)C3CCC12C` (stereo not shown) [GS-11, CK-3′,4′,6′-trisuccinate]: the IC50 in assay [1] (setting [6]) was greater than 100 µM.

With `CC(C)=CCC[C@](C)(O[C@@H]1O[C@H](CO)[C@@H](O)[C@H](O)[C@H]1O)[C@H]1CC[C@]2(C)[C@@H]1[C@H](O)C[C@@H]1[C@@]3(C)CC[C@H](O)C(C)(C)[C@@H]3CC[C@]12C` [GS-12, 20-O-β-D-glucopyranosyl-protopanaxadiol, reference compound], the half-maximal inhibitory concentration (IC50) stood at 17.7 µM in assay [2], 11.2 µM in assay [3], 9.3 µM in assay [4] and 2.7 µM in assay [1] (setting [6]). In the case of `CC(C)=CCCC(C)(OC1OC(CO)C(O)C(OC(=O)CCCC(=O)O)C1O)C1CCC2(C)C1C(O)CC1C3(C)CCC(O)C(C)(C)C3CCC12C` (stereo not shown) [GS-13, CK-3′-monoglutarate], the IC50 in assay [1] (setting [6]) came out at 69.1 µM.

On to `CC(C)=CCCC(C)(OC1OC(COC(=O)CCCC(=O)O)C(O)C(OC(=O)CCCC(=O)O)C1O)C1CCC2(C)C1C(O)CC1C3(C)CCC(O)C(C)(C)C3CCC12C` (stereo not shown) [GS-14, CK-3′,6′-diglutarate], for which the IC50 in assay [1] (setting [6]) came to 79.8 µM.

A word on the IC50: it is the concentration needed to halve the response being measured.
